From ChEMBL document CHEMBL1201862, “PubChem BioAssay data set” (2004) come the findings set out here.

Among the test systems are 786-0; LOX IMVI; M14; A498; HT-29; SK-MEL-2; MDA-MB-435; HL-60; Hs-578T; NCI-H226; MOLT-4; RPMI-8226; TK-10; SF-295; MDA-MB-231; A549; CAKI-1; OVCAR-4; HOP-92.
Common to all, as to test: inhibition of tumour cell growth, NCI panel, 48 h

SMILES strings stand for the structures. Several values for one entry are separate records, joined by “and”; a condition that tells them apart may be missing. Equal entries are not always repeated.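 Tested at 5 concentrations; 48 h exposure; 96-well plates; endpoints linearly interpolated, else capped at highest concentration. GI50 marks 50% less growth.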 Activity calls are given as the source filed them. Rule as the data show it: active = GI50 up to about 1.1 µM and inactive = higher.

On to `COc1cc(OC)cc(-c2nc(O)c3ccccc3n2)c1`, for which the GI50 in the test on 786-0 is 25.4 µM (inactive); in the test with LOX IMVI, > 100 µM (inactive); in the test with M14 it was > 100 µM (inactive); in the test with A498 it was 31.1 µM (inactive); with HT-29, > 100 µM (inactive); in the test on SK-MEL-2, > 100 µM (inactive). The GI50 in the test with MDA-MB-435 is > 100 µM (inactive); with HL-60, > 100 µM (inactive); with Hs-578T, 38.8 µM (inactive); in the test with NCI-H226, > 100 µM (inactive); with MOLT-4, > 100 µM (inactive); in the test on RPMI-8226 it was > 100 µM (inactive). Also, the GI50 in the test with TK-10 was 43.5 µM (inactive); in the test on SF-295, 29 µM (inactive); in the test with MDA-MB-231, 86.1 µM (inactive); with A549, > 100 µM (inactive); with CAKI-1 it was > 100 µM (inactive); in the test with OVCAR-4 it was > 100 µM (inactive). In the test on HOP-92, the GI50 was > 100 µM (inactive).
`O=C(O)CCCSc1nc2ccccc2s1`: the GI50 with 786-0, in the test with LOX IMVI, with M14, in the test with A498, with HT-29 and in the test on SK-MEL-2 was > 100 µM (inactive) throughout. Besides, the GI50 in the test with MDA-MB-435, in the test on HL-60, in the test with Hs-578T, with NCI-H226, in the test with MOLT-4 and in the test with RPMI-8226 was > 100 µM (inactive) each time. The GI50 in the test with TK-10, with SF-295, with MDA-MB-231, with A549, with CAKI-1 and with OVCAR-4 was > 100 µM (inactive) each time. In addition, in the test with HOP-92, the GI50 is > 100 µM (inactive).
For `O=C(Nc1nnc(-c2ccc(Cl)cc2)o1)C(SC(=S)N1CCCCC1)c1ccccc1` (stereo not drawn), the GI50 in the test on 786-0 was 14.8 µM (inactive); in the test with LOX IMVI, 6.12 µM (inactive); in the test with M14 it was 13.2 µM (inactive); with A498, 18.5 µM (inactive); in the test on HT-29, 22.2 µM (inactive); in the test with SK-MEL-2 it was 15.7 µM (inactive). For the same molecule, the GI50 in the test on MDA-MB-435 was 21.2 µM (inactive); with HL-60 it was 8.59 µM (inactive); in the test on Hs-578T it was 26.2 µM (inactive); with NCI-H226, 32.7 µM (inactive); with MOLT-4 it was 1.31 µM (inactive); with RPMI-8226 it was 11.2 µM (inactive). The GI50 in the test on TK-10 is 34 µM (inactive); with SF-295, 12 µM (inactive); in the test on MDA-MB-231, 19.4 µM (inactive); in the test on A549, 16.4 µM (inactive); with CAKI-1, 13.6 µM (inactive); with OVCAR-4, 22 µM (inactive). Also, the GI50 with HOP-92 is 22.7 µM (inactive).
Take `CC(=O)c1cccc2c1CC1(C2)Cc2ccc3c(c2C1=O)CCC3` (stereo not drawn): the GI50 is 41.2 µM (inactive) in the test on 786-0; 27.5 µM (inactive) in the test with LOX IMVI; 46.7 µM (inactive) in the test on M14; > 100 µM (inactive) in the test with A498; 23.1 µM (inactive) in the test on HT-29; 26.2 µM (inactive) with SK-MEL-2. Moreover, the GI50 with MDA-MB-435 was 32.1 µM (inactive); with HL-60, 3.64 µM (inactive); with Hs-578T it was 32.7 µM (inactive); in the test on NCI-H226, 23.9 µM (inactive); with MOLT-4, 25.3 µM (inactive); with RPMI-8226, 17.3 µM (inactive). The GI50 was 24.2 µM (inactive) in the test with TK-10; 43.2 µM (inactive) with SF-295; 32.6 µM (inactive) with MDA-MB-231; 23.3 µM (inactive) in the test with A549; 48 µM (inactive) with CAKI-1; 29.5 µM (inactive) in the test on OVCAR-4. For the same molecule, the GI50 in the test with HOP-92 was 12.6 µM (inactive).
Turning to `O=[N+]([O-])c1cccc2nc3ccccc3c(NCCC[N+]3([O-])CCOCC3)c12`, the GI50 is 0.116 µM (active) in the test on 786-0; 0.281 µM (active) in the test on LOX IMVI; 0.238 µM (active) in the test with M14; 0.164 µM (active) with A498; 0.0859 µM (active) with HT-29; 0.175 µM (active) in the test with SK-MEL-2. Besides, the GI50 with MDA-MB-435 is 0.157 µM (active); in the test with HL-60 it was 0.245 µM (active); with Hs-578T, 0.433 µM (active); in the test on NCI-H226 it was 0.186 µM (active); with MOLT-4 it was 0.0687 µM (active); in the test on RPMI-8226, 0.193 µM (active). For the same molecule, the GI50 was 0.697 µM (active) with TK-10; 0.275 µM (active) in the test on SF-295; 0.247 µM (active) in the test with MDA-MB-231; 0.0959 µM (active) with A549; 2.65 µM (inactive) with CAKI-1; 0.12 µM (active) in the test on OVCAR-4. For the same molecule, the GI50 with HOP-92 was 0.0935 µM (active).
As for `COCn1c2ccc(OC(C)=O)cc2c2c(=O)oc(C)nc21`, the GI50 was > 100 µM (inactive) in the test on 786-0; > 100 µM (inactive) in the test on LOX IMVI; > 100 µM (inactive) in the test with M14; 50.4 µM (inactive) with A498; 0.497 µM (active) in the test on HT-29; > 100 µM (inactive) with SK-MEL-2. Also, the GI50 with MDA-MB-435, in the test on HL-60, in the test with Hs-578T, in the test with NCI-H226, in the test on MOLT-4 and in the test on RPMI-8226 was > 100 µM (inactive) in each case. Further, the GI50 in the test with TK-10 was > 100 µM (inactive); in the test with SF-295, > 100 µM (inactive); in the test with MDA-MB-231, > 100 µM (inactive); in the test on A549, > 100 µM (inactive); in the test with CAKI-1, 57.7 µM (inactive); with OVCAR-4 it was > 100 µM (inactive). Further, the GI50 with HOP-92 is > 100 µM (inactive).
For `COC(=O)[C@H](Cc1ccccc1)NC(=O)[C@H](Cc1ccccc1)NC(=O)CN1C(=O)[C@@H]2C3C=CC(C3)[C@@H]2C1=O`, the GI50 is 15.5 µM (inactive) and 14.2 µM (inactive) in the test on 786-0; 18.3 µM (inactive) and 17.9 µM (inactive) with LOX IMVI; 19.9 µM (inactive) and 18.6 µM (inactive) in the test on M14; 22.9 µM (inactive) and 16.8 µM (inactive) in the test with A498; 19.2 µM (inactive) and 20 µM (inactive) in the test with HT-29; 18.2 µM (inactive) and 17.9 µM (inactive) with SK-MEL-2. Further, the GI50 in the test on MDA-MB-435 is 15.3 µM (inactive) and 17.3 µM (inactive); with HL-60, 11 µM (inactive); with Hs-578T it was 19.1 µM (inactive) and 19.5 µM (inactive); in the test with NCI-H226 it was 20.1 µM (inactive) and 19.1 µM (inactive); in the test with MOLT-4 it was 3.32 µM (inactive) and 2.26 µM (inactive); with RPMI-8226, 21.6 µM (inactive) and 14.9 µM (inactive). The GI50 in the test on TK-10 is 18.9 µM (inactive) and 17.5 µM (inactive); with SF-295, 18.5 µM (inactive) and 19.2 µM (inactive); in the test with MDA-MB-231, 17.3 µM (inactive) and 17 µM (inactive); with A549, 22 µM (inactive) and 21.1 µM (inactive); in the test on CAKI-1, 16.7 µM (inactive) and 18.6 µM (inactive); in the test on OVCAR-4, 16.1 µM (inactive) and 19 µM (inactive). In addition, the GI50 with HOP-92 was 18.3 µM (inactive) and 20.6 µM (inactive).
